Reference: US11999727B2 (Tango Therapeutics, Inc., priority 2020, dated 2024)
Like-named read-outs stand apart in the source and are kept apart here.

Experiments:
[1] = system: HAP1 MTAP-deleted cell line; assay: SDMA in-cell western assay, HAP1 MTAP-deleted; type: cell-based; conditions: for IC50: Homo sapiens; for MTAP intact/deleted ratio: SDMA in-cell western
Outline: (§1)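 Isogenic HAP1 pair: the MTAP-intact line expresses endogenous MTAP, and the deleted line is MTAP-null. Symmetric dimethylarginine was detected by in-cell western and IC50 values derived for each line.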

[2] = system: HAP1 MTAP-intact cell line; assay: SDMA in-cell western assay, HAP1 MTAP-intact; type: cell-based; conditions: Homo sapiens
Outline: as §1

[3] = molecular target: T1, PRMT5 (Homo sapiens, UniProt O14744); assay: PRMT5 biochemical IC50 assay with no cofactor
T1 construct: purchased Viva (custom protein)
Excerpt: Table 1 indicates IC50 values (μM) against PRMT5 for exemplary compounds in the presence of SAM as cofactor, with no cofactor, and with MTA as cofactor, respectively (columns 4-6). […] Ki values can be calculated from the IC50 values as described in the Examples section. As detailed in the Examples section, for the assay performed in the presence of SAM, IC50=Ki×1.5 (Ki=IC50/1.5).

[4] = molecular target: T1, PRMT5; assay: PRMT5 biochemical IC50 assay with MTA as cofactor
[5] = system: HAP1 MTAP-deleted cell line; assay: Viability assay, MTAP-deleted cell line; type: cell-based; conditions: Homo sapiens
Excerpt: Table 1 additionally indicates IC50 values in a viability assay for the MTAP-deleted cell line (column 10), indicating the effect of treatment with compound on cell survival.

[6] = molecular target: T1, PRMT5; assay: PRMT5 biochemical IC50 assay with SAM as cofactor
[7] = HAP1, SDMA in-cell western, HAP1 MTAP-deleted, read-out: HAP 1 MTAP deleted IC50
[8] = IC50 ratio HAP1 MTAP-intact / HAP1 MTAP-deleted
[9] = HAP1, SDMA in-cell western, HAP1 MTAP-intact, read-out: MTAP HAP1 intact IC50
[10] = PRMT5, no cofactor, read-out: No Cofactor/ rel IC50
[11] = PRMT5, MTA as cofactor, read-out: MTA IC50
[12] = HAP1, viability, HAP1 MTAP-deleted cell line, read-out: HAP1 MTAP deleted viability
[13] = PRMT5, SAM as cofactor, read-out: SAM IC50
[14] = HAP1, SDMA in-cell western, HAP1 MTAP-deleted, read-out: HAP1 MTAP deleted IC50
[15] = IC50 ratio HAP1 MTAP-intact vs HAP1 MTAP-deleted
[16] = PRMT5, no cofactor, read-out: No Cofactor/rel IC50
[17] = HAP1, viability assay, MTAP-deleted cell line, read-out: HAP1 MTAP deleted viability
[18] = HAP1, viability assay, HAP1 MTAP-deleted, read-out: HAP1 MTAP deleted viability

T1 sequence (O14744 whole entry): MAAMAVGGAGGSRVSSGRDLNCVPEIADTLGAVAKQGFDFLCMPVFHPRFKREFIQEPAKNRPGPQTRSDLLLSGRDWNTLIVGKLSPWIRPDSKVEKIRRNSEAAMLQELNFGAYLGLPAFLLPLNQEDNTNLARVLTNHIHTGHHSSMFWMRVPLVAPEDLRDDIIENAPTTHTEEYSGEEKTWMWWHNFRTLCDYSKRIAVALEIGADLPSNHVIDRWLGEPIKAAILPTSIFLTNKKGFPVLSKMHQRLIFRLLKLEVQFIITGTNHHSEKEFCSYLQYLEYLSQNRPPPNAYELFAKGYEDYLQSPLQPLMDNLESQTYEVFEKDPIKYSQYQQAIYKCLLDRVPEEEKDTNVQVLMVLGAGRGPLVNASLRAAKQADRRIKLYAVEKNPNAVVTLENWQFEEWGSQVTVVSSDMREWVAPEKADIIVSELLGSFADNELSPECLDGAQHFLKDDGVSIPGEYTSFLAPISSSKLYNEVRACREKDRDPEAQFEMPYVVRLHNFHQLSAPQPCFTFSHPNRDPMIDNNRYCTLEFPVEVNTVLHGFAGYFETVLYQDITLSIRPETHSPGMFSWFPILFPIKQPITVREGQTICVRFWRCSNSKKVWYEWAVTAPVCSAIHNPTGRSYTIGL
T1 sequence (Q9BQA1 whole entry partner): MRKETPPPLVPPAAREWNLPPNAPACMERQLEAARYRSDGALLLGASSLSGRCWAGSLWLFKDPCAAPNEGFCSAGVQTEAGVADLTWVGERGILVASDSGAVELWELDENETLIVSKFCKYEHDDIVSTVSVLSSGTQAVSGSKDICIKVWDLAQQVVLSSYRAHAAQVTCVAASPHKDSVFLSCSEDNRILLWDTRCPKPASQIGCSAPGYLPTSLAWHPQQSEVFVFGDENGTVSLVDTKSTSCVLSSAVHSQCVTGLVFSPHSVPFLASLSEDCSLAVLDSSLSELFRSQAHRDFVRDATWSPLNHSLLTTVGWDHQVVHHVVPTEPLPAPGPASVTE

Cc1cc(NC(=O)C(=O)N2C[C@@H](C)CC[C@@H]2c2cccc(C3CCN(C)CC3)c2)cnc1N (single isomer, unassigned) [Compound 1253]
IC50 [1, 7]: < 100 nM
MTAP intact/deleted ratio [1, 8]: A (an IC50 ratio greater than or equal to 10 fold)
IC50 [2, 9]: 100 to 1000 nM
IC50 [3, 10]: < 50 nM
IC50 [4, 11]: < 50 nM
IC50 [5, 12]: < 1000 nM
IC50 [6, 13]: < 50 nM

CCc1cc(NC(=O)C(=O)N2C[C@@H](C)CC[C@@H]2c2ccc3cn(C)nc3c2)cnc1N [Compound 1199, N-(6-amino-5-ethyl-3-pyridyl)-2-[(5S)-5-methyl-2-(2-methylindazol-6-yl)-1-piperidyl]-2-oxo-acetamide]
IC50 [1, 14]: < 100 nM
MTAP intact/deleted ratio [1, 15]: A (an IC50 ratio greater than or equal to 10 fold)
IC50 [2, 9]: 100 to 1000 nM
IC50 [3, 16]: < 50 nM
IC50 [4, 11]: < 50 nM
IC50 [5, 17]: < 1000 nM
IC50 [6, 13]: 50 to 500 nM

C[C@@H]1CC[C@@H](c2cccs2)N(C(=O)C(=O)Nc2cncc(C(N)=O)c2)C1 (racemic) [Compound 99, 5-(2-(5-methyl-2-(thiophen-2-yl)piperidin-1-yl)-2-oxoacetamido)nicotinamide]
IC50 [1, 7]: < 100 nM
MTAP intact/deleted ratio [1, 8]: A (an IC50 ratio greater than or equal to 10 fold)
IC50 [2, 9]: > 1000 nM
IC50 [3, 10]: 50 to 500 nM
IC50 [4, 11]: < 50 nM
IC50 [5, 17]: 1000 to 10000 nM
IC50 [6, 13]: 50 to 500 nM

C[C@@H]1CC[C@@H](c2ccc3sc(CCN(C)C)nc3c2)N(C(=O)C(=O)Nc2cncc(C(N)=O)c2)C1 (single isomer, unassigned) [Compound 1254]
IC50 [1, 7]: < 100 nM
MTAP intact/deleted ratio [1, 8]: A (an IC50 ratio greater than or equal to 10 fold)
IC50 [2, 9]: 100 to 1000 nM
IC50 [3, 10]: < 50 nM
IC50 [4, 11]: < 50 nM
IC50 [5, 12]: < 1000 nM
IC50 [6, 13]: < 50 nM

CCc1cc(NC(=O)C(=O)N2C[C@@H](C)CC[C@@H]2c2ccc3sc(C45CCN(CC4)C5)nc3c2)cnc1N [Compound 1298, 2-((2R,5S)-2-(2-(1-azabicyclo[2.2.1]heptan-4-yl)benzo[d]thiazol-5-yl)-5-methylpiperidin-1-yl)-N-(6-amino-5-ethylpyridin-3-yl)-2-oxoacetamide]
IC50 [1, 7]: < 100 nM
MTAP intact/deleted ratio [1, 8]: B (an IC50 ratio greater than or equal to 3 fold but lower than 10 fold)
IC50 [2, 9]: < 100 nM
IC50 [3, 10]: < 50 nM
IC50 [4, 11]: < 50 nM
IC50 [5, 12]: < 1000 nM
IC50 [6, 13]: 50 to 500 nM

C[C@@H]1CCC[C@H]2CN(C(=O)C(=O)Nc3cncc(C(N)=O)c3)CC[C@H]21 (racemic) [Compound 515, 5-(2-(5-methyloctahydroisoquinolin-2(1H)-yl)-2-oxoacetamido)nicotinamide]
IC50 [1, 14]: > 1000 nM
MTAP intact/deleted ratio [1, 8]: B (an IC50 ratio greater than or equal to 3 fold but lower than 10 fold)
IC50 [2, 9]: > 1000 nM
IC50 [3, 16]: > 500 nM
IC50 [4, 11]: 50 to 500 nM
IC50 [5, 17]: > 10000 nM
IC50 [6, 13]: 50 to 500 nM

CNc1ccc([C@H]2CC[C@@H](C)CN2C(=O)C(=O)Nc2cnc(OC)c(C(N)=O)c2)cn1 (single isomer, unassigned) [Compound 467]
MTAP intact/deleted ratio [1, 8]: C (an IC50 ratio of less than 3 fold)
IC50 [2, 9]: > 1000 nM
IC50 [3, 16]: > 500 nM
IC50 [4, 11]: > 500 nM
IC50 [5, 17]: > 10000 nM
IC50 [6, 13]: > 500 nM

Cc1nc2cc([C@@H]3CC[C@H](C)CN3C(=O)C(=O)Nc3cnc(N)c(C)c3)ccc2o1 (single isomer, unassigned) [Compound 1170]
IC50 [1, 14]: < 100 nM
MTAP intact/deleted ratio [1, 15]: A (an IC50 ratio greater than or equal to 10 fold)
IC50 [2, 9]: 100 to 1000 nM
IC50 [3, 16]: < 50 nM
IC50 [4, 11]: < 50 nM
IC50 [5, 17]: < 1000 nM
IC50 [6, 13]: 50 to 500 nM

C[C@@H]1CC[C@@H](c2ccc(-c3nccs3)cc2)N(C(=O)C(=O)Nc2cncc(C(N)=O)c2)C1 (single isomer, unassigned) [Compound 783]
IC50 [1, 14]: < 100 nM
MTAP intact/deleted ratio [1, 8]: A (an IC50 ratio greater than or equal to 10 fold)
IC50 [2, 9]: > 1000 nM
IC50 [3, 16]: 50 to 500 nM
IC50 [4, 11]: < 50 nM
IC50 [5, 18]: 1000 to 10000 nM
IC50 [6, 13]: 50 to 500 nM

CCc1cc(NC(=O)C(=O)N2C[C@@H](C)CC[C@@H]2c2ccc3sc(C4(OC)CCN(C)CC4)nc3c2)cnc1N [Compound 1118, N-(6-amino-5-ethylpyridin-3-yl)-2-((2R,5S)-2-(2-(4-methoxy-1-methylpiperidin-4-yl)benzo[d]thiazol-5-yl)-5-methylpiperidin-1-yl)-2-oxoacetamide]
IC50 ([1]; HAP1, read-out: HAP1 MTAP deleted IC50): < 100 nM
MTAP intact/deleted ratio [1, 15]: A (an IC50 ratio greater than or equal to 10 fold)
IC50 ([2]; HAP1, read-out: MTAP HAP1 intact IC50): < 100 nM
IC50 ([3]; No Cofactor/rel IC50, PRMT5, no cofactor): < 50 nM
IC50 ([4]; MTA IC50, PRMT5, MTA as cofactor): < 50 nM
IC50 ([5]; HAP1, read-out: HAP1 MTAP deleted viability): < 1000 nM
IC50 ([6]; SAM IC50, PRMT5, SAM as cofactor): < 50 nM

NC(=O)c1cncc(NC(=O)C(=O)N2CC[C@@H](O)C[C@H]2c2ccccc2)c1 (racemic) [Compound 185, 5-(2-(4-hydroxy-2-phenylpiperidin-1-yl)-2-oxoacetamido)nicotinamide]
IC50 [1, 14]: > 1000 nM
MTAP intact/deleted ratio [1, 8]: C (an IC50 ratio of less than 3 fold)
IC50 [2, 9]: > 1000 nM
IC50 [3, 16]: > 500 nM
IC50 [4, 11]: 50 to 500 nM
IC50 [5, 17]: > 10000 nM
IC50 [6, 13]: 50 to 500 nM

CCc1cc(NC(=O)C(=O)N2C[C@@H](C)CC[C@@H]2c2ccc3sc([C@H]4CCN(C)C(C)(C)C4)nc3c2)cnc1N (single isomer, unassigned) [Compound 1129]
IC50 [1, 14]: < 100 nM
MTAP intact/deleted ratio [1, 15]: B (an IC50 ratio greater than or equal to 3 fold but lower than 10 fold)
IC50 [2, 9]: < 100 nM
IC50 [3, 16]: < 50 nM
IC50 [4, 11]: < 50 nM
IC50 [5, 17]: < 1000 nM
IC50 [6, 13]: 50 to 500 nM

NC(=O)c1cncc(NC(=O)C(=O)N2CC[C@@H]3CCCC[C@@H]3C2)c1 (racemic) [Compound 429, 5-(2-(octahydroisoquinolin-2(1B)-yl)-2-oxoacetamido)nicotinamide]
IC50 [1, 14]: > 1000 nM
MTAP intact/deleted ratio [1, 8]: B (an IC50 ratio greater than or equal to 3 fold but lower than 10 fold)
IC50 [2, 9]: > 1000 nM
IC50 [3, 16]: > 500 nM
IC50 [4, 11]: 50 to 500 nM
IC50 [5, 17]: > 10000 nM
IC50 [6, 13]: 50 to 500 nM

CCc1cc(NC(=O)C(=O)N2C[C@@H](C)CC[C@@H]2c2ccc(N3C[C@H]4CCN(C)C[C@H]4C3)cc2)cnc1N (racemic) [Compound 1167, N-(6-amino-5-ethyl-3-pyridyl)-2-oxo-2-[rac-(2R,5S)-5-methyl-2-[4-[rac-(3aS,7aS)-5-methyl-3,3a,4,6,7,7a-hexahydro-1H-pyrrolo[3,4-c]pyridin-2-yl]phenyl]-1-piperidyl]acetamide]
IC50 [1, 14]: < 100 nM
MTAP intact/deleted ratio [1, 15]: A (an IC50 ratio greater than or equal to 10 fold)
IC50 [2, 9]: 100 to 1000 nM
IC50 [3, 16]: < 50 nM
IC50 [4, 11]: < 50 nM
IC50 [5, 17]: < 1000 nM
IC50 [6, 13]: < 50 nM

Cc1ccc([C@H]2CC[C@H](C)CN2C(=O)C(=O)Nc2cnc(N)c(C)c2)cn1 (single isomer, unassigned) [Compound 707]
IC50 [1, 14]: > 1000 nM
MTAP intact/deleted ratio [1, 8]: B (an IC50 ratio greater than or equal to 3 fold but lower than 10 fold)
IC50 [2, 9]: > 1000 nM
IC50 [3, 16]: > 500 nM
IC50 [4, 11]: > 500 nM
IC50 [5, 18]: > 10000 nM
IC50 [6, 13]: > 500 nM

CCc1cc(NC(=O)C(=O)N2C[C@@H](C)CC[C@@H]2c2ccc3sc(CCOC)nc3c2)cnc1N (single isomer, unassigned) [Compound 1386]
IC50 [1, 7]: < 100 nM
MTAP intact/deleted ratio [1, 8]: A (an IC50 ratio greater than or equal to 10 fold)
IC50 [2, 9]: 100 to 1000 nM
IC50 [3, 10]: < 50 nM
IC50 [4, 11]: < 50 nM
IC50 [5, 12]: < 1000 nM
IC50 [6, 13]: 50 to 500 nM

Cc1cccc2cc([C@@H]3CC[C@@H](C)CN3C(=O)C(=O)Nc3cncc(C(N)=O)c3)cnc12 (racemic) [Compound 215, rac-5-{2-[(2R,5S)-5-Methyl-2-(8-methylquinolin-3-yl)piperidin-1-yl]-2-oxoacetamido}pyridine-3-carboxamide]
IC50 [1, 14]: > 1000 nM
MTAP intact/deleted ratio [1, 8]: B (an IC50 ratio greater than or equal to 3 fold but lower than 10 fold)
IC50 [2, 9]: > 1000 nM
IC50 [3, 16]: > 500 nM
IC50 [4, 11]: 50 to 500 nM
IC50 [5, 17]: > 10000 nM
IC50 [6, 13]: > 500 nM

C[C@@H]1CC[C@@H](c2ccc(-n3cccn3)cc2)N(C(=O)C(=O)Nc2cncc(C(N)=O)c2)C1 (racemic) [Compound 256, rac-5-{2-[(2R,5S)-5-Methyl-2-[4-(1H-pyrazol-1-yl)phenyl]piperidin-1-yl]-2-oxoacetamido}pyridine-3-carboxamide]
IC50 [1, 14]: < 100 nM
MTAP intact/deleted ratio [1, 8]: A (an IC50 ratio greater than or equal to 10 fold)
IC50 [2, 9]: > 1000 nM
IC50 [3, 16]: 50 to 500 nM
IC50 [4, 11]: < 50 nM
IC50 [5, 17]: 1000 to 10000 nM
IC50 [6, 13]: 50 to 500 nM
